Measured values as given in US8003673B2, “Daptomycin for the treatment of biofilm and catheter salvage” (Cubist Pharmaceuticals, Inc., priority 2006, dated 2011).
≈ marks a conversion by molar mass, not a printed value. Like-named read-outs stand apart in the source and are kept apart here.

Key:
Staphylococcus aureus = assay: Susceptibility (MIC) of S. aureus #42 control strain; format: cell-based
[1] = tested on: Staphylococcus epidermidis; assay: Susceptibility (MIC) of S. epidermidis isolates used in CVC studies
[2] = tested on: S. epidermidis CVC infection; assay: Rat model of CVC infection, antibiotic lock therapy; format: in vivo, Sprague Dawley rats; conditions: for Metastatic infection after lock therapy: lock therapy combined with SC dosing
Experimental: (§1) Male Sprague Dawley rats (˜250 g) with catheterized jugular veins were used in these studies. Rat catheters (polyurethane tubing, 0.025 inch internal diameter) were inoculated with a culture of S. epidermidis at 5×10^8 CFU/ml. The total volume of the catheters is approximately 40 μl. The catheters were flushed with heparinized saline 1 hour after inoculation, and were maintained by daily flushes. The catheter infection was monitored by daily blood draws that were plated and quantified.
(§2) Daptomycin, vancomycin and nafcillin were used as therapy. Two different dosing regimes were used. The first mimicked clinical infusion with daptomycin administered at 5 mg/ml in the line for 30 minutes once daily compared to vancomycin at 5 mg/ml for 60 minutes twice daily, for a total of 4 days. The second regime simulated antibiotic lock therapy with an 18 hour exposure of daptomycin or vancomycin at 5 mg/ml, followed by a heparinized saline flush, daily for 3 days. In both regimes, the animals received parenteral doses of the appropriate antibiotic by subcutaneous route to simulate total body exposure (as it was not possible to administer the correct dosages through the line at 5 mg/ml). Most trials involved a therapy period, followed by a period of no antibiotic therapy to monitor for resurgence of infection due to surviving bacterial colonies.
(§3) Infection levels were monitored by daily blood draws through the infected catheter. For the terminal harvest, a final blood draw was taken and then the flushed catheter was harvested, and analyzed for surviving bacteria by sonication, vortexing, and plating. The vena cava, heart, lung, kidney, and spleen were assayed as potential metastatic infection sites by aseptic harvest, homogenization, and plating.

[3] = tested on: Methicillin-resistant coagulate negative staphylococci biofilms; format: cell-based, coagulase negative staphylococci (S. epidermidis isolates)
Experimental: Methicillin-resistant coagulate negative staphylococci biofilms were grown to approximately 10^5 cells per cm^2 for 24 h in glass test tubes, planktonic bacteria rinsed away and Mueller Hinton broth (calcium supplemented to […] in daptomycin tests) containing antimicrobials added to the tubes. The concentrations of antimicrobials studied were two-fold dilutions from 64 to 1 μg/mL of daptomycin, rifampin, or daptomycin plus 0.5 μg/mL rifampin. The tests were incubated overnight in room air at 37° C. The cell density in rinsed biofilms was determined prior to addition of antimicrobials and after incubation. The change in bacterial density after incubation with antimicrobials was determined, and the results were expressed as the lowest antimicrobial concentration that killed 99.90% of biofilm bacteria. Bacteria recovered from tests containing rifampin were tested for rifampin susceptibility.

[4] = tested on: S. epidermidis CVC infection; assay: Rat model of CVC infection, infusion therapy; format: in vivo, Sprague Dawley rats
Experimental: as §1, §2, §3

[5] = tested on: S. epidermidis biofilm in catheter; assay: Histopathology of CVC biofilms in the rat model; format: in vivo, Sprague Dawley rats
Experimental: The nature of the CVC infection and resulting biofilms in the catheter was determined through histopathology. The data on histopathology can be summarized as follows: • 1. Eight days after implantation, the rat central venous catheter model develops focal biofilms with or without bacterial colonies in the catheter's inner luminal surfaces. At this time point, the thickness of the biofilm varies between 7 to 15 microns. • 2. After 12 days of implantation, the fibrils making up the inner luminal surface biofilm appear to be denser and more organized, and the biofilm layer is slightly thicker (up to 25 microns). • 3. In the saline negative controls, bacterial colonies were present in the biofilm, and identified as Gram positive cocci. • 4. […] However, cocci-like, Gram positive individual round structures were noted. • 5.
At day 12 post infection in untreated rats, as in the previous time point, biofilms tended to be present in the inner luminal surfaces of the indwelling catheter, 5-25 microns thick, and contained variable numbers of basophilic granular bacterial colonies (confirmed by Gram stain). However, in contrast to the previous time point, focal portions of the luminal protein cast appeared to be more organized and contained numerous bluish bacterial colonies. See FIG. 10 showing the biofilm appearance at day 12 post infection. […] Rat A1 served as negative control and received saline (2 mL/kg SC+saline via catheter); Rat A6 received low-dose daptomycin (10 mg/kg SC+5 mg/mL via catheter); Rat A12 received high-dose daptomycin (33 mg/kg SC+5 mg/mL via catheter); and Rat A17 received vancomycin (50 mg/kg SC+5 mg/mL via catheter). Tissues from the four rats were evaluated. FIG. 11, below, is a composite of the findings for all four rats.
FIG. 11 provides histopathological evidence of daptomycin and vancomycin efficacy after 4 days of infusion therapy. In FIG. 11, from left to right, the images illustrate the CVC tissues from rats A1, A6, A12, and A17, respectively. The upper images are all H&E-stained and the bottom images are all Gram-stained. […] These round structures surrounded or encircled cell membranes.

[6] = tested on: stationary phase S. epidermidis; assay: In vitro model of stationary phase bacteria (kill kinetics); format: cell-based; conditions: for Cidal activity against stationary phase culture: through 24 hours
Experimental: The impact of cidal activity of antibacterial compounds on stationary phase bacteria was assayed. Cultures of S. epidermidis and S. aureus were grown to stationary phase (>1×10^9 and centrifuged, washed 2×, and then resuspended into saline or lactated Ringer's solution. The cultures were treated with either daptomycin or vancomycin at 5 mg/ml and the decrease in viable bacteria were measured through 24 hours to determine the kill kinetics.

[7] = strain 42 Staphylococcus aureus, read-out: MIC
[8] = strain 119 Staphylococcus epidermidis
[9] = strain 1315 Staphylococcus epidermidis
[10] = strain 1316 Staphylococcus epidermidis
[11] = strain 1317 Staphylococcus epidermidis
[12] = strain 1318 Staphylococcus epidermidis
[13] = strain 1319 Staphylococcus epidermidis
[14] = strain 1320 Staphylococcus epidermidis
[15] = following 7 days of antibiotic-free heparin flushes
[16] = Antimicrobial Concentration ≧64
[17] = day 15, after 6 days of antibiotic-free heparin flushes following infusion therapy

MIC (Staphylococcus aureus; [7]) | MIC [1, 12] | Compound | MIC [1, 8] | MIC [1, 9] | MIC [1, 10] | MIC [1, 11] | MIC [1, 13] | MIC [1, 14] | Animals with positive catheter at harvest after lock therapy [2, 15] | Metastatic infection after lock therapy [2] | also measured
2 µg/mL (≈ 5.93 µM) | 1 µg/mL (≈ 2.96 µM) | CC(=O)NC[C@H]1CN(c2ccc(N3CCOCC3)c(F)c2)C(=O)O1 [Linezolid] | 1 µg/mL (≈ 2.96 µM) | 0.5 µg/mL (≈ 1.48 µM) | 1 µg/mL (≈ 2.96 µM) | 0.5 µg/mL (≈ 1.48 µM) | 0.5 µg/mL (≈ 1.48 µM) | 1 µg/mL (≈ 2.96 µM) | – | – | –
0.125 µg/mL (≈ 0.302 µM) | > 16 µg/mL | CCOc1ccc2ccccc2c1C(=O)N[C@@H]1C(=O)N2[C@@H]1SC(C)(C)[C@@H]2C(=O)O [Nafcillin] | 0.031 µg/mL (≈ 0.0748 µM) | 2 µg/mL (≈ 4.83 µM) | 16 µg/mL (≈ 38.6 µM) | 0.125 µg/mL (≈ 0.302 µM) | 16 µg/mL (≈ 38.6 µM) | > 16 µg/mL | all | A significant proportion of nafcillin-treated animals showed positive metastatic infections at multiple sites | –

Compound | MIC (Staphylococcus aureus; [7]) | MIC [1, 12] | MIC [1, 8] | MIC [1, 9] | MIC [1, 10] | MIC [1, 11] | MIC [1, 13] | MIC [1, 14] | Animals with positive catheter at harvest after lock therapy [2, 15] | Metastatic infection after lock therapy [2] | also measured
CO[C@H]1/C=C/O[C@@]2(C)Oc3c(C)c(O)c4c(O)c(c(/C=N/N5CCN(C)CC5)c(O)c4c3C2=O)NC(=O)/C(C)=C\C=C\[C@H](C)[C@H](O)[C@@H](C)[C@@H](O)[C@@H](C)[C@H](OC(C)=O)[C@@H]1C [Rifampicin] | < 0.004 µg/mL | – | 0.008 µg/mL (≈ 0.00972 µM) | < 0.004 µg/mL | 0.008 µg/mL (≈ 0.00972 µM) | > 4 µg/mL | < 0.004 µg/mL | 0.008 µg/mL (≈ 0.00972 µM) | – | – | # of isolates (lowest concentration that killed 99.90% of biofilm bacteria) ([3]; Antimicrobial Concentration 1): 1 (1); (N) number of rifampin susceptible isolates that became rifampin resistant during test ([3]; Antimicrobial Concentration 1): 1 (1); Mean log10 reduction ([3]; Antimicrobial Concentration 1): 3.5 log10; # of isolates (lowest concentration that killed 99.90% of biofilm bacteria) ([3]; Antimicrobial Concentration 2): 0; # of isolates (lowest concentration that killed 99.90% of biofilm bacteria) ([3]; Antimicrobial Concentration 4): 1; Mean log10 reduction ([3]; Antimicrobial Concentration 4): 3.2 log10; # of isolates (lowest concentration that killed 99.90% of biofilm bacteria) ([3]; Antimicrobial Concentration 8): 2; Mean log10 reduction ([3]; Antimicrobial Concentration 8): 3.4 log10; # of isolates (lowest concentration that killed 99.90% of biofilm bacteria) ([3]; Antimicrobial Concentration 16): 2; (N) number of rifampin susceptible isolates that became rifampin resistant during test ([3]; Antimicrobial Concentration 16): 1; Mean log10 reduction ([3]; Antimicrobial Concentration 16): 3.0 log10; # of isolates (lowest concentration that killed 99.90% of biofilm bacteria) ([3]; Antimicrobial Concentration 32): 0; # of isolates (lowest concentration that killed 99.90% of biofilm bacteria) [3, 16]: 21; (N) number of rifampin susceptible isolates that became rifampin resistant during test [3, 16]: 7; Mean log10 reduction [3, 16]: 1.4 log10
CN[C@H](CC(C)C)C(=O)N[C@H]1C(=O)N[C@@H](CC(N)=O)C(=O)N[C@H]2C(=O)N[C@H]3C(=O)N[C@H](C(=O)N[C@H](C(=O)O)c4cc(O)cc(O)c4-c4cc3ccc4O)[C@H](O)c3ccc(c(Cl)c3)Oc3cc2cc(c3O[C@@H]2O[C@H](CO)[C@@H](O)[C@H](O)[C@H]2O[C@H]2C[C@](C)(N)[C@H](O)[C@H](C)O2)Oc2ccc(cc2Cl)[C@H]1O [Vancomycin] | – | 2 µg/mL (≈ 1.38 µM) | 1 µg/mL (≈ 0.69 µM) | 1 µg/mL (≈ 0.69 µM) | 1 µg/mL (≈ 0.69 µM) | 1 µg/mL (≈ 0.69 µM) | 1 µg/mL (≈ 0.69 µM) | 1 µg/mL (≈ 0.69 µM) | None | cleared and prevented reemergence of metastatic infection | MIC (Staphylococcus aureus; Staphylococcus aureus): 0.25 µg/mL (≈ 0.173 µM); Catheter infection by CVC blood draw after infusion therapy ([4]; 5 mg/ml in line, daptomycin once a day, vancomycin twice a day, after three days of therapy (day 8)): reduced most catheter infections to a non-detectable level; Relative efficacy in the rat CVC model ([4]; comparison between treatments): equally effective (to daptomycin in Ringer's); Animals with harvested catheter positive for S. epidermidis CFUs [4, 17]: 2/6; Animals with positive blood draws through the catheter [4, 17]: 0/6; Clearing of blood draw cultures during infusion therapy ([4]; doses days 5-8, daptomycin 30 minute once a day, vancomycin 60 min twice a day): negative blood draw cultures by day 8; Metastatic infection after infusion therapy (vena cava, heart, lung, kidney, spleen) ([4]; infusion therapy, same groups as FIG. 3): very little metastatic infection at any site; Overall outcome of lock therapy ([2]; 18 hour lock at 5 mg/ml): curative in lock therapy; Animals with positive blood draws after lock therapy [2, 15]: None; Biofilm formation and Gram positive bacterial colonies in the biofilm (histopathology summary) ([5]; 5 mg/mL via the catheter): did not prevent biofilm formation, or completely the growth and presence of Gram positive bacterial colonies in the biofilm; Bacterial colonies in biofilm, histopathology of single rats ([5]; after 4 days of infusion therapy, rat A12 daptomycin 33 mg/kg SC + 5 mg/mL via catheter, rat A17 vancomycin 50 mg/kg SC + 5 mg/mL via catheter): Biofilms containing true bacterial colonies; Cidal activity against stationary phase culture ([6]; 5 mg/ml in lactated Ringer's): no cidal activity; Cidal activity against stationary phase culture ([6]; 5 mg/ml in lactated Ringer's, listed as vancomycin): not cidal; Cidal activity against stationary phase culture ([6]; 5 mg/ml in saline): neither daptomycin nor vancomycin had cidal activity; Cidal activity against stationary phase S. epidermidis (conclusion) ([6]; in vitro, medium not stated): not cidal
